Source: patent publication US20030175961A1, “Immortal micorvascular endothelial cells and uses thereof” (priority 2002, published 2003)
Entries after “also recorded” stand apart in the source; their conditions may differ.

Experiments:
[1] = tested on: human microvessel formation by GNMEC1; experiment: In vivo human microvascular remodeling assay, GNMEC1 in Matrigel implants in SCID mice; design: species or system human cells in SCID mice; settings: agents mixed with GNMEC1 in Matrigel before implantation in SCID mice; FIG. 24-27; preliminary studies
From the text: (§1) SCID mice were implanted with Matrigel mixtures containing either b-FGF, primary HDMEC (PD1O) or hTERT(+)HDMEC via subcutaneous injection on ventral thoracic surfaces. Implants were harvested at 2 weeks, sectioned and stained with H&E and anti-human basement membrane Type 4 collagen. […] The presence of red blood cells within these human vessels indicates host vasculature has anastamosed with the human vessels creating murine-human chimeric microvasculature.
All agents were incorporated into Matrigel by mixing cells and agents together before implantation. The effect of continuous exposure at different concentrations was not performed but would be likely to greatly accentuate the results shown in these preliminary studies.

[2] = tested on: HDMEC-GT derived microvessels; experiment: SCID mice xenografting of HDMEC-GT in Matrigel, human vessel quantification; format: in vivo, human cells in SCID mice; settings: for human vessel density (human type IV collagen micromorphometry): two weeks after implantation, VEGF 2 μg/ml or FGF-2 150 ng/ml mixed with HDMEC-GT and Matrigel, only FGF-2 significant (p<0.01)
Experimental: This procedure is based on a modification of the mouse angiogenesis model previously described^41. Two-three week old male or female SCID mice (Taconic, Germantown, N.Y.) were used as hosts for all implants. Primary HDMEC and HDMEC-T were harvested, washed twice and re-suspended in serum-free EGM-2 basal medium at the concentration of 1×10^5/μl. Ten μl of cells were mixed with 0.5 ml of Matrigel on ice and the mixture was implanted in the ventral midline thoracic tissue of each mouse by subcutaneous injection using a #25 needle. Up to three separate injections could be performed on a single mouse. For some experiments, recombinant human VEGF165 (2 μg/ml) (R&D systems, Minneapolis, Minn.) or bovine FGF-2 (150 ng/ml) (R&D systems, Minneapolis, Minn.) were added to the mixture. When tumor cells (HT1080 and 293, ATCC) or primary human dermal fibroblasts 38 were injected, the procedure remained the same except basal DMEM medium replaced EGM-2. 41. Passaniti, A. et al. A simple, quantitative method for assessing angiogenesis and antiangiogenic agents using reconstituted basement membrane, heparin, and fibroblast growth factor. Lab. Invest. 67, 519-528 (1992).
Matrigel implants were removed at 1, 2, 4 and 6 wk following xenografting, fixed in 10% buffered formalin overnight, paraffin-embedded and sectioned. H&E stained thin sections were prepared at Pan-insular Histopathology laboratory (Los Gatos, Calif.). For immunofluorescence, thin sections were deparaffinized and antigens retrieved in 10 mM citric acid (pH 6.0) by microwaving sections for 2×7 min. […] For micromorphometry, 5 separate 20×fields were randomly selected per tissue section and the number of annular structures were counted and averaged. […] Passaniti, A. et al. A simple, quantitative method for assessing angiogenesis and antiangiogenic agents using reconstituted basement membrane, heparin, and fibroblast growth factor. […]
For digital analysis of eGFP fluorescence images we used a novel algorithm (Moss Filter™) to determine the total amount of vascularization in each implant section. […]

[3] = tested on: host murine microvasculature; experiment: Host vessel invasion of Matrigel implants in SCID mice; format: in vivo; settings: FGF-2 alone in Matrigel, no human EC
From the text: as §1
This procedure is based on a modification of the mouse angiogenesis model previously described^41. Two-three week old male or female SCID mice (Taconic, Germantown, N.Y.) were used as hosts for all implants. […] Passaniti, A. et al. A simple, quantitative method for assessing angiogenesis and antiangiogenic agents using reconstituted basement membrane, heparin, and fibroblast growth factor. […]
Matrigel implants were removed at 1, 2, 4 and 6 wk following xenografting, fixed in 10% buffered formalin overnight, paraffin-embedded and sectioned. […] For micromorphometry, 5 separate 20×fields were randomly selected per tissue section and the number of annular structures were counted and averaged. […] Passaniti, A. et al. A simple, quantitative method for assessing angiogenesis and antiangiogenic agents using reconstituted basement membrane, heparin, and fibroblast growth factor. […]

MMP activities = experiment: Fluorescent substrate assay (FSA) of MMP activity in HDMEC conditioned media; format: biochemical, human; settings: concentrated conditioned media from HDMEC cultures +/- PMA; Knight substrate
Experimental: Replicate hTERT(+)HDMECs (PD30, 60, 90) and primary controls (PD5, PD25) are seeded at equal densities, grown to confluence and switched to EBM media (Clonetics, San Diego, Calif.) containing growth factors, but no serum, for 72 hrs. Media is collected and total protein measured (Pierce, Rockford, Ill.). […] In addition, conditioned media are analyzed by a fluorescent substrate assay (FSA).
The FSA is an assay system for MMP activities based on recently-developed fluorogenic substrates that utilize 7-methoxycoumarin (MOC)-labeled MMP-specific small peptides (“Knight” substrate; Knight CG. Fluorimetric Assays of Proteolytic Enzymes. Met Enzymol 1995, 248:18-34). Release of MOC from the 2,4-dinitrophenyl-quenched peptide by active MMPs results in proportional increases in fluorescence with time. Activities of recombinant MMP-2 and MMP-9 using the Knight substrate were readily detectable and yielded linear initial reaction rates over 10 minutes. Calculated initial rates of hydrolysis of the Knight substrate (4 uM) by MMP-2 (1.2 nM), MMP-9 (1.2 nM), and MMP-2 (0.6 uM) plus MMP-9 (0.6 uM) were 571.1 units/min, 208.2 units/min, and 242 units/min, respectively. […]

[4] = tested on: GNMEC1 (eGFP-labeled hTERT(+)HDMEC); experiment: In vitro angiogenic web formation on Matrigel; format: cell-based, human; settings: GNMEC1 pretreated with COX antagonist, then plated on Matrigel; FIG. 17
Experimental: Tubule formation on Matrigel. Matrigel (Collaborative Biomedical Products) was placed on ice and allowed to thaw overnight in a darkened cold room or refrigerator. Three hundred fifty microliters of the Matrigel was layered onto a pre-chilled well of a 6-well plate and then placed in an incubator at 37° C. for one half hour for the Matrigel to solidify. About 350,000 cells in M199/15% FBS/10 U/ml heparin/16 ig/ml ECGF were then seeded onto the matrix and allowed to incubate at 37° C., 5% CO2 environment. […] To show the utility of this in vitro system, we pretreated GNMEC1 with two different cyclo-oxygenase (COX) antagonists which are known to block angiogenesis (Jones et al. 1999 Nature Medicine 5:12;1418-23) and then plated the cells on Matrigel. […] The “tubulogenic process” can be followed and quantified utilizing cell lines such as GNMEC1 and digitally-converted fluorescence microscopic images of replicate cultures. Commercially available programs in current use with other cellular applications which maybe used to perform this process include MetaMorph® (Universal Imaging Corporation®, West Chester, Pa.) and the high-throughput imaging systems of Cellomics, Inc. (Pittsburgh, Pa.).

hTERT(+) HDMEC (TERT-1) = experiment: Cell surface marker expression after TNF stimulation, TERT-1; format: cell-based, human; settings: TNFá stimulation for 16 hr
Experimental: (§2) The hTERT(+) HDMEC (TERT-1) line expressed uniformly high PCAM but relatively low levels of ICAM-1 (30%), VCAM-1 (1.3%) and CD34 (19.5%) at baseline. […] The latter result was consistent with experiments performed in support of the present invention that studied the same characteristics of primary HDMEC CD34 expression.
(§3) The antibodies used for flow Cytometry were anti-PECAM (Becton Dickinson), ICAM (Pharmingen), and Apo2.7 (Immunotech). […] For apo 2.7 assay, the cells were treated with TNFá+actinomycin D (AMD), LPS+cycloheximide (CHX), or UV light 16 hours prior to the experiments. One group of cells were serum starved for 40 hours. The cells are incubated with either PE conjugated primary antibody or un-conjugated primary antibody+PE conjugated secondary antibody at 37° C. The data was collected and analyzed with CellQuest (Becton Dickinson) or Coulter EPICS cell sorter.

primary HDMEC (control) = experiment: Cell surface marker expression after TNF stimulation, primary HDMEC; format: cell-based, human; settings: TNFá stimulation for 16 hr
Experimental: as §2, §3

[5] = tested on: primary normal human keratinocyte (NHK) cultures; experiment: Fluorescent substrate assay (FSA) of net MMP activity in keratinocyte conditioned media; format: cell-based; settings: conditioned media of PMA-treated NHK, only after APMA activation
From the text: The FSA is an assay system for MMP activities based on recently-developed fluorogenic substrates that utilize 7-methoxycoumarin (MOC)-labeled MMP-specific small peptides (“Knight” substrate; Knight CG. Fluorimetric Assays of Proteolytic Enzymes. Met Enzymol 1995, 248:18-34). Release of MOC from the 2,4-dinitrophenyl-quenched peptide by active MMPs results in proportional increases in fluorescence with time. Activities of recombinant MMP-2 and MMP-9 using the Knight substrate were readily detectable and yielded linear initial reaction rates over 10 minutes. Calculated initial rates of hydrolysis of the Knight substrate (4 uM) by MMP-2 (1.2 nM), MMP-9 (1.2 nM), and MMP-2 (0.6 uM) plus MMP-9 (0.6 uM) were 571.1 units/min, 208.2 units/min, and 242 units/min, respectively.
Reverse zymography confirmed the presence of TIMPs.

Molecule: FGF-2: bovine FGF-2 (R&D systems), pro-angiogenic factor
- effect on human microvessel formation in vivo (microvessel density, anti-human Type 4 collagen immuno-micromorphometry) [1]: greatest stimulatory effect
- human vessel density (human type IV collagen micromorphometry) [2]: statistically increased human vessel density
- host vessel invasion of Matrigel implants [3]: marked host vessel invasion; also recorded: stimulated
- host vessel invasion of Matrigel implants ([3]; listed as b-FGF): host microvasculature is readily apparent invading

Molecule: c1cnc2c(c1)ccc1cccnc12 [1, 10 phenanthraline, reference compound]
- blocking of MMP activities (MMP activities): completely blocked

Molecule: CS(=O)(=O)Nc1ccc([N+](=O)[O-])cc1OC1CCCCC1 [NS-398]
- angiogenic web blockade (dose-response curve) [4]: angiogenic web blockade

Molecule: COc1ccc2c(c1)c(CC(=O)O)c(C)n2C(=O)c1ccc(Cl)cc1 [indomethacin]
- angiogenic web blockade (dose-response curve) [4]: angiogenic web blockade

Molecule: rTIMP-1: Tissue Inhibitor of Matrix metalloProteinases 1
- blocking of MMP activities (MMP activities): partially blocked

Molecule: VEGF
- increased vessel density relative to controls ([2]; VEGF mixed with HDMEC-GT and Matrigel, two weeks, not statistically significant): 20-30%
- human vessel density (human type IV collagen micromorphometry) [2]: increased vessel density

Molecule: TNFá
- VCAM-1 expression (hTERT(+) HDMEC (TERT-1); TERT-1 (baseline 1.3%)): 41%
- CD34 expression (hTERT(+) HDMEC (TERT-1); TERT-1 (baseline 19.5%)): 1.6%
- ICAM-1 expression (hTERT(+) HDMEC (TERT-1); TERT-1 (baseline 30%)): > 99%
- ICAM-1 expression (primary HDMEC (control); control primary cells): > 99%
- VCAM-1 expression (primary HDMEC (control); control primary cells): 41%
- CD34 expression (primary HDMEC (control); primary cells): 45%

Molecule: CCCCCCCCCCCCCC(=O)O[C@@H]1[C@@H](C)[C@@]2(O)[C@@H](C=C(CO)C[C@]3(O)C(=O)C(C)=C[C@@H]23)[C@@H]2C(C)(C)[C@]12OC(C)=O [PMA, reference compound]
- effect on human microvessel formation in vivo (microvessel density, anti-human Type 4 collagen immuno-micromorphometry) [1]: angiostatic qualities
- net MMP activity [5]: 10.1 units/min/ug total protein
